How the values were obtained:
[1] = prophylactic drops; cited from earlier work
[2] = topical use in the ear; cited from earlier work
ear = conditions: guinea pigs; cited from earlier work
[3] = test system: inner ear hearing function; assay: Application to the round window membrane with monitoring of compound action potential (CAP); type: in vivo, guinea pigs; conditions: 0.05 to 1.0% applied directly to the round window membrane, more than 50 animals
Description: The inventor conducted animal studies involving application of alpha agonists, including phenylphrine (and other similar agents) directly in the middle ear space of guinea pigs. In these studies, phenylephrine at a concentration of 0.05 to 1.0% was applied directly to the round window membrane of the animal. […] The monitoring of CAP was not specifically reported in published reports, but rather was monitored on a routine basis as a part of the experimental setup. […] See also Isaacson G et al., Oxymetazoline solutions inhibit middle ear pathogens and are not ototoxic.

[4] = topical; cited from earlier work

Molecule	toxicity for the inner ear (ototoxicity) [2]	effectiveness in treating middle ear infections [4]	other results
O=C(O)c1cn(C2CC2)c2cc(N3CCNCC3)c(F)cc2c1=O [ciprofloxacin]			prevention of post-operative ear drainage after tube insertion [1]: effective at preventing post-operative ear drainage after tube insertion
CC1COc2c(N3CCN(C)CC3)c(F)cc3c(=O)c(C(=O)O)cn1c23 (stereo not drawn) [ofloxacin]	demonstrated lack of toxicity for the inner ear		
Cc1cc(C(C)(C)C)c(O)c(C)c1CC1=NCCN1 [oxymetazoline]			toxicity to the ear (ear): non-toxic to the ear
CNC[C@H](O)c1cccc(O)c1 [phenylephrine]			compound action potential (CAP), a measure of inner ear hearing function [3]: not found to be adversely affected
NC[C@H]1O[C@H](O[C@H]2[C@H](O)[C@@H](O[C@H]3O[C@H](CO)[C@@H](O)[C@H](N)[C@H]3O)[C@H](N)C[C@@H]2N)[C@H](N)C[C@@H]1O [tobramycin]	scattered reports of ototoxicity	effective in treating middle ear infections topically	
Gentamycin	scattered reports of ototoxicity	effective in treating middle ear infections topically	
neomycin		effective in treating middle ear infections topically	

Source: US20070173463A1, “Method and composition for treating otitis media” (priority 2006, published 2007)
